By solubility is commonly meant the concentration that dissolves in the medium under given conditions. One may read the half-life as the time in which the quantity being followed falls by half.

Data set [1] in a line: 1-day stability study of individual prodrugs in aqueous solution. In kind it is physicochemical. As to conditions: aqueous solution 80 μg/mL, ambient storage. The procedure: The L-dopa phosphate prodrugs and the carbidopa phosphate prodrugs were evaluated in a stability study.
Data set [2] can be described thus: 1-day stability study, diphosphate combination solution. It counts as physicochemical. As to conditions: combined solution L-dopa 3′,4′-diphosphate 35 mg/mL + carbidopa 3′,4′-diphosphate 8.7 mg/mL, pH 6.2, room temperature, nitrogen purged. The procedure: In addition, a solution combining the diphosphates of each compound (L-dopa 3′, 4′-diphosphate at 35 mg/mL and carbidopa 3′, 4′-diphosphate at 8.7 mg/mL) was monitored over one day at room temperature. This sample was purged with nitrogen to remove oxygen.

A short description of data set [3]: Solubility study in water by visual assessment. It counts as physicochemical. As to conditions: for solubility: thermodynamic from solid, water, ambient. The procedure:
The L-dopa phosphate prodrugs and the carbidopa phosphate prodrugs were evaluated in a solubility study. The solubility values of the phosphate prodrugs in water under ambient conditions were determined by visual assessment. Table 13-A reports the results of the study, including the measured values for L-dopa and carbidopa.

A short description of data set [4]: In vitro bioconversion study, blood (human). As to conditions: for T1/2 / half-life at 2.5 ug/mL: prodrug 2.5 ug/mL, 37° C. It counts as in vitro ADME.
Procedure: (§1) In brief, the L-dopa and carbidopa phosphate prodrugs (2.5 ug/mL) were incubated with tissue homogenate or fractions from rats, mini-pigs, or human, including blood, skin homogenate (3 mg/mL), liver microsomes (1 mg/mL), liver S9 fraction (1 mg/mL), kidney S9 fraction (1 mg/mL), and intestine S9 fractions (1 mg/mL). The reaction mixtures were incubated at 37° C. for 5 to 6 time points within 1 to 2 hours. At the end of each time point, the reaction mixtures were quenched by 2 to 3 volumes of 5% trichloroacetic acid in water. After quenching, the mixtures were centrifuged at 3000 rpm for 20 minutes, and the supernatants were analyzed by LC-MS for quantitation of the prodrug, L-dopa or carbidopa. The in vitro bioconversion was assessed by monitoring both time-dependent depletion of the prodrug and the formation of the corresponding L-dopa or carbidopa.
Data set [5] can be described thus: In vitro bioconversion study, blood (rat). It counts as in vitro ADME. As to conditions: for half-life at 2.5 ug/mL: prodrug 2.5 ug/mL, 37° C.
Procedure: as §1
A short description of data set [6]: In vitro bioconversion study, blood (mini-pig). As to conditions: for T1/2 / half-life at 2.5 ug/mL: prodrug 2.5 ug/mL, 37° C.; for half-life at 2.5 ug/mL: minipig. In kind it is in vitro ADME.
Procedure: as §1
A short description of data set [7]: In vitro bioconversion study, skin homogenates (human). In kind it is in vitro ADME. As to conditions: for L-Dopa or Carbidopa Formation: human skin homogenate.
Procedure: (§2) The in vitro bioconversion of the L-dopa phosphate prodrugs to L-dopa and the carbidopa phosphate prodrugs to carbidopa was evaluated in several studies. In brief, the L-dopa and carbidopa phosphate prodrugs (2.5 ug/mL) were incubated with tissue homogenate or fractions from rats, mini-pigs, or human, including blood, skin homogenate (3 mg/mL), liver microsomes (1 mg/mL), liver S9 fraction (1 mg/mL), kidney S9 fraction (1 mg/mL), and intestine S9 fractions (1 mg/mL). The reaction mixtures were incubated at 37° C. for 5 to 6 time points within 1 to 2 hours. At the end of each time point, the reaction mixtures were quenched by 2 to 3 volumes of 5% trichloroacetic acid in water. After quenching, the mixtures were centrifuged at 3000 rpm for 20 minutes, and the supernatants were analyzed by LC-MS for quantitation of the prodrug, L-dopa or carbidopa. The in vitro bioconversion was assessed by monitoring both time-dependent depletion of the prodrug and the formation of the corresponding L-dopa or carbidopa.
Data set [8] is described as follows: In vitro bioconversion study, skin homogenates (rat). In kind it is in vitro ADME. As to conditions: for L-Dopa or Carbidopa Formation: rat skin homogenate.
Procedure: as §1
A short description of data set [9]: In vitro bioconversion study, skin homogenates (mini-pig). As to conditions: for L-Dopa or Carbidopa Formation: mini-pig skin homogenate; for half-life at 2.5 ug/mL: minipig. It counts as in vitro ADME.
Procedure: as §1
Data set [10] can be described thus: In vitro bioconversion study, human liver microsomes. In kind it is in vitro ADME. As to conditions: human liver microsomes 1 mg/mL. (Microsomes from liver hold many membrane-bound enzymes, among them those of drug oxidation.)
Procedure: as §2
Data set [11] in a line: In vitro bioconversion study, liver S9 fraction (rat). It counts as in vitro ADME. As to conditions: rat liver S9 fraction 1 mg/mL.
Procedure: as §2
Data set [12] can be described thus: In vitro bioconversion study, liver S9 fraction (mini-pig). In kind it is in vitro ADME. As to conditions: mini-pig liver S9 fraction 1 mg/mL.
Procedure: as §2
The nature of data set [13]: In vitro bioconversion study, liver S9 fraction (human). It counts as in vitro ADME. As to conditions: human liver S9 fraction 1 mg/mL.
Procedure: as §2
A short description of data set [14]: In vitro bioconversion study, kidney S9 fraction (rat). In kind it is in vitro ADME. As to conditions: rat kidney S9 fraction 1 mg/mL.
Procedure: as §2
Data set [15] can be described thus: In vitro bioconversion study, kidney S9 fraction (human). In kind it is in vitro ADME. As to conditions: human kidney S9 fraction 1 mg/mL.
Procedure: as §2
Data set [16] can be described thus: In vitro bioconversion study, intestinal S9 fractions (human). It counts as in vitro ADME. As to conditions: for L-Dopa or Carbidopa Formation: human intestinal S9 fraction; for half-life at 2.5 ug/mL: human intestinal S9 fraction 1 mg/mL.
Procedure: as §2
A short description of data set [17]: In vitro bioconversion study, intestinal S9 fractions (rat). In kind it is in vitro ADME. As to conditions: for L-Dopa or Carbidopa Formation: rat intestinal S9 fraction; for half-life at 2.5 ug/mL: rat intestinal S9 fraction 1 mg/mL.
Procedure: as §2
A short description of data set [18]: Carbidopa diphosphate pharmacokinetics study in mini-pigs. It counts as in vivo. As to conditions: for Estimated Conversion % (Based on Carbidopa AUC): mini-pig, SC, dose 8.5 mg/kg. The procedure:
The in vivo conversion of the carbidopa diphosphate to carbidopa was evaluated in a mini-pig pharmacokinetics study in which the prodrug was administered in aqueous solution subcutaneously to a group of three mini-pigs. For comparison, a pharmacokinetics study with carbidopa also was conducted to help assess the in vivo conversion of the carbidopa prodrugs. The estimated in vivo conversion of the carbidopa diphosphate to carbidopa was approximately 100%, based on the carbidopa exposures.

Data set [19] is described as follows: 7-day stability study, 4′-monophosphate combination solution. In kind it is physicochemical. As to conditions: combined solution L-dopa 4′-monophosphate 200 mg/mL + carbidopa 4′-monophosphate 50 mg/mL, pH 7.4, room temperature. The procedure: In addition, a solution combining the L-dopa 4′-monophosphate at 200 mg/mL and carbidopa 4′-monophosphate at 50 mg/mL was monitored over 7 days at room temperature. These samples were prepared with and without purging with nitrogen to remove oxygen.

The format of data set [20] is in vivo, rats. As to conditions: rat, 4:1 combination, SC bolus 60/14 mg/kg then SC infusion 300/71 mg/kg. The procedure:
After 1.5 hours, the combination was dosed again via continuous infusion at a dose of 300/71 mg/kg over next 14.5 hours. Blood samples were collected at 0, 0.25, 1, 6, 16, and 24 hours post dose. […] FIG. 7 provides a time-concentration profile for L-dopa and L-dopa 4′-monophosphate blood levels after administration of the combination of 4′-monophosphate prodrugs at a 4:1 ratio. […] Steady state concentration of ˜1 μg/mL was maintained over the infusion period for carbidopa. […] FIG. 9 provides a time-concentration profile for carbidopa and carbidopa 4′-monophosphate blood levels after administration of the combination of 4′-monophosphate prodrugs at a 4:1 ratio.

For data set [21] the following is noted: mini-pig, 15:1 combination 48/3.2 mg/kg.
Procedure: In this study, the pig received a 16-hour subcutaneous infusion of a combination of the L-dopa 4′-monophosphate and the carbidopa 4′-monophosphate together in an aqueous solution at a dose ratio of 15:1 without an initial bolus dose. The doses were 48/3.2 mg/kg for L-dopa 4′-monophosphate and the carbidopa 4′-monophosphate, respectively.
Data set [22] is described as follows: Pharmacokinetic study in rats, individual prodrug IV or SC. In kind it is in vivo, Sprague-Dawley rats. As to conditions: male, Sprague-Dawley, plasma, rat, dose 1.25 mg/kg, L-dopa and carbidopa in aqueous solution, read-out: Carbidopa AUCO-8 h. The procedure: For comparison, a rat pharmacokinetics study with L-dopa and carbidopa was conducted to help assess the in vivo conversion of the prodrugs. The study design and measured exposures of L-dopa and carbidopa are summarized in Tables 16-A and 16-B, respectively. In brief, groups of three male Sprague-Dawley rats were given (1) L-dopa and carbidopa in aqueous solution, or (2) the individual prodrug in aqueuous solution intravenously or subcutaneously. Blood samples were collected at multiple time points over 24 hours into a collection tube containing NaAsO4, EDTA, and ascorbic acid. […] The supernatants were subjected to LC-MS analysis for quantitation of prodrug, L-dopa or carbidopa.

The mark [23] stands for this setting: listed as 3′,4′-diphosphate prodrug of carbidopa.
The mark [24] stands for this setting: listed as diphosphate prodrug of carbidopa.
Where [25] appears, read: human skin homogenate 3 mg/mL, 37° C.
[26] abbreviates: rat skin homogenate 3 mg/mL, 37° C.
Setting [27] is: mini-pig skin homogenate 3 mg/mL, 37° C.

Bounds are passed on as bounds.

Regarding `C[C@@](Cc1ccc(OP(=O)(O)O)c(OP(=O)(O)O)c1)(NN)C(=O)O` [Carbidopa 3′,4′-diphosphate], the “% Remaining After One Day” value in data set [1] (pH 6.8) was more than 97%; in [2] it was more than 99%. The same compound yielded a solubility in data set [3] (pH 5.5, amorphous) of more than 247 mg/mL. In addition, the “L-Dopa or Carbidopa Formation” value is given as “No” in data set [4]; “Yes” in [5]; “No” in [6]; “No” in data set [7]; “No” in data set [8]; “No” in [9]. In addition, the “L-Dopa or Carbidopa Formation” value in [16] and in data set [17] was “Yes” throughout. Besides, the T1/2 entry in data set [4] (setting [23]) is on record as “stable”; in data set [4] (setting [24]) it was “not dephosphorylated”; in data set [6] (setting [23]), “stable”; in [6] (setting [24]), “not dephosphorylated”; in data set [7] (setting [25]), “stable”; in data set [8] (setting [26]), “stable”. Further, the T1/2 result in data set [9] (setting [27]) is reported as “stable”. Moreover, the half-life at 2.5 ug/mL was determined as 0.883 h in data set [5], 0.525 h in [16] and 1.32 h in [17]. The “stability and L-dopa or carbidopa formation” value in [10], in [11], in [12], in data set [13], in data set [14] and in [15] was “stable without formation of L-dopa or carbidopa observed” each time. Also, the “Estimated Conversion % (Based on Carbidopa AUC)” value in data set [18] (setting [23]) is recorded as 100%; in data set [18] (listed as carbidopa diphosphate), “approximately 100%”.
As to `C[C@@](Cc1ccc(O)c(OP(=O)(O)O)c1)(NN)C(=O)O` [Carbidopa 3′-phosphate, Carbidopa 3′-monophosphate], the “% Remaining After One Day” value in data set [1] (pH 6.5) is listed as more than 94%. In data set [3] (pH 7.1, amorphous), this compound registered a solubility of more than 96 mg/mL. The “L-Dopa or Carbidopa Formation” value in [4], in [5], in data set [6], in [7], in data set [8] and in data set [9] was “Yes” each time. Further, the half-life at 2.5 ug/mL was found to be 0.967 h in data set [4]; 0.342 h in data set [5]; 8.9 min in data set [6]; 10 h in data set [7] (setting [25]); 12.1 h in data set [8] (setting [26]); 6.88 h in [9] (setting [27]).
Regarding `C[C@@](Cc1ccc(OP(=O)(O)O)c(O)c1)(NN)C(=O)O` [Carbidopa 4′-phosphate, Carbidopa 4′-monophosphate], in data set [1] (pH 6.8), the “% Remaining After One Day” value is more than 98%. For the same compound, the “% Remaining After 7 Days” value in data set [19] (Nitrogen Purged) is more than 99%; in [19] (Non-Purged), more than 97%. For the same compound, the “solubility compared to L-dopa and carbidopa” value in [3] (FIG. 1, pH of 7.4) is on record as “increased solubility”. In addition, the solubility in data set [3] (pH 7.4, L-dopa 4′-phosphate crystalline, carbidopa 4′-phosphate amorphous) was more than 200 mg/mL. Also, the “L-Dopa or Carbidopa Formation” value in data set [4], in data set [5], in [6], in [7], in [8] and in data set [9] was “Yes” throughout. Moreover, the “L-Dopa or Carbidopa Formation” value in data set [16] and in data set [17] was “Yes” in each case. In addition, the half-life at 2.5 ug/mL in [4] stood at 1.08 h; in [5] it was 0.248 h; in [6], 8.8 min; in [7] (setting [25]), 2.3 h; in [8] (setting [26]), 4.52 h; in [9] (setting [27]), 1.9 h. The half-life at 2.5 ug/mL was 0.402 h in data set [16] and 1.23 h in [17]. For the same compound, the “stability and L-dopa or carbidopa formation” value in [10], in data set [11], in data set [12], in [13], in [14] and in data set [15] was “stable without formation of L-dopa or carbidopa observed” each time. Also, in data set [20], the “Exposure of the remaining carbidopa 4′-monophosphate, % of carbidopa” value is approximately 8%. Also, the “Exposure of the remaining carbidopa 4′-monophosphate, % of the carbidopa exposure” value in [21] is given as approximately 22%.
In data set [3] (pH 4-7, crystalline (carbidopa: crystalline monohydrate)), `C[C@@](Cc1ccc(O)c(O)c1)(NN)C(=O)O` [Carbidopa, (2S)-3-(3,4-dihydroxyphenyl)-2-hydrazino-2-methylpropanoic acid] displayed a solubility of less than 4 mg/mL. Besides, the AUC came out at 860 ng·h/mL in data set [22] (IV); 685 ng·h/mL in data set [22] (SC); 1610 ng·h/mL in data set [18] (minipig, in vivo, sc, 2 mg/kg).
